The results in this text go back to US4368203A, “Antibiotics and derivatives thereof having β-lactamase inhibitory activity and production thereof” (priority 1977, dated 1983).

Converted amounts (≈) assume the structure as drawn. “Also recorded” adds a separate entry of the source. Like-named read-outs stand apart in the source and are kept apart here.

The test system of series [1] is Alcaligenes faecalis B-326. Kind of series: MIC, broth dilution method. Format: cell-based. The following applies: Alcaligenes faecalis, B326, 20 h, read-out: Minimum inhibitory concentration. As to the method: (§1) Sodium salt of the antibiotic PS-7 was dissolved and diluted with the BRAIN HEART INFUSION BROTH "Eiken" at a concentration between 5 μg/ml and 100 μg/ml. The solution was further diluted with the same medium to obtain a series of geometric concentrations. To the serial dilutions were added the seed cultures prepared by shaking culture of various test microorganisms shown in Tab. 5 in the BRAIN HEART INFUSION GROTH at 28° C. for 18 hours, the final cell count being about 1×10^5 /ml. […] The lowest concentration at which no cell growth was observed was the minimum inhibitory concentration of the antibiotic PS-7 on the test microorganism. […] . The minimum inhibitory concentrations on test strains were determined in the same manner as mentioned above. […] For the comparison, the results on the known antibiotics Cephazolin and Cefoxitin are also given in the same table.
A general note: Broth dilution looks for growth in wells or tubes with falling amounts of substance.

The test system of series [2] is Citrobacter freundii E-9. Kind of series: MIC, broth dilution method. Format: cell-based. The following applies: Citrobacter freundii, E9, 20 h, lactamase producing organism, read-out: Minimum inhibitory concentration. How it is done:
as §1

In series [3] the test system is Diplococcus pneumoniae Type III. Kind of series: MIC, broth dilution method. Format: cell-based. The following applies: Streptococcus pneumoniae, 20 h, 10% of horse blood in the medium, read-out: Minimum inhibitory concentration. How it is done:
as §1

In series [4] the test system is Staphylococcus aureus FDA 209P. Kind of series: MIC, broth dilution method. Format: cell-based. The conditions noted are these: FDA209P, 20 h, final methanol not above 10%, read-out: Minimum inhibitory concentration. As to the method: as §1
In series [5] the test system is Enterobacter cloacae E-16. The experiment in a line: MIC, broth dilution method. The conditions noted are these: Enterobacter cloacae, E16, 20 h, lactamase producing organism, read-out: Minimum inhibitory concentration. Format: cell-based. As to the method: Sodium salt of the antibiotic PS-7 was dissolved and diluted with the BRAIN HEART INFUSION BROTH "Eiken" at a concentration between 5 μg/ml and 100 μg/ml. The solution was further diluted with the same medium to obtain a series of geometric concentrations. To the serial dilutions were added the seed cultures prepared by shaking culture of various test microorganisms shown in Tab. 5 in the BRAIN HEART INFUSION GROTH at 28° C. for 18 hours, the final cell count being about 1×10^5 /ml. […] The lowest concentration at which no cell growth was observed was the minimum inhibitory concentration of the antibiotic PS-7 on the test microorganism. […] The minimum inhibitory concentrations on test strains were determined in the same manner as mentioned above.

Series [6] concerns Staphylococcus aureus Smith. The experiment in a line: In vivo activity in intraperitoneally infected mice. Further details: species or system DDY male mice. The conditions noted are these: for ED50: Staphylococcus aureus, sc, mice infected i.p. with 5×10^5 cells/mouse, subcutaneous injection just after infection, read-out: 50% curative dose (CD50); for Therapeutic effect in infected mice: mice infected with pathogenic Gram-positive bacteria. How it is done: Soon after infection, an aqueous solution of the antibiotic PS-5 sodium salt preparation was subcutaneously injected.
Activity of the antibiotic PS-7 obtained above was determined using mice infected with Staphylococcus aureus Smith at 5×10^5 cells a mouse intraperitoneally. Sodium salt of the antibiotic PS-7 was administered to the mice subcutaneously immediately after the infection.
The tritylation product of antibiotic PS-6 was subcutaneously injected just after infection. The 50% curative dose on male DDY mice (SHIZUOKA) was 5.5 mg/kg.
The tritylation product of antibiotic PS-7 was subcutaneously injected just after infection. The 50% curative dose on make DDY mice (SHIZUOKA) was 4.5 mg/kg.

A short description of series [7]: Acute toxicity, intraperitoneal administration. The following applies: mice, 500 mg/kg. Format: in vivo, DDY male mice.
Another series is described as follows: Solubility. Format: physicochemical. The conditions noted are these: 5 mg in 0.1 ml of solvent, shaking, 20° C.; for Solubility in organic solvents: solvents named in the value. The text has this: The results are as shown as below:
The results are as shown below:

A short description of series [8]: Stability (general statements). Format: physicochemical. The conditions noted are these: general statement.
The test system of series [9] is Gram-positive and Gram-negative bacteria. The experiment in a line: Antibiotic spectra (summary in words). Format: cell-based. The conditions noted are these: for Antibiotic activity against Gram-negative bacteria resistant to β-lactam antibiotics: genera Citrobacter, Proteus, Klebsiella, Enterobacter, Serratia as named at the place; for Antibiotic activity against Gram-positive bacteria: genera Staphylococcus, Diplococcus, Streptococcus, Bacillus as named at the place.

Series [10] relates to Streptococcus pyogenes NY-5. Kind of series: MIC, broth dilution method. The conditions noted are these: Streptococcus pyogenes, NY5, 20 h, read-out: Minimum inhibitory concentration.
Series [11] deals with Klebsiella pneumoniae K-2. The experiment in a line: MIC, broth dilution method. The conditions noted are these: Klebsiella pneumoniae, K2, 20 h, read-out: Minimum inhibitory concentration.
Series [12] deals with Proteus vulgaris P-5. The experiment in a line: MIC, broth dilution method. The conditions noted are these: Proteus vulgaris, P5, 20 h, read-out: Minimum inhibitory concentration.
For series [13], the system named is Proteus vulgaris P-5. The experiment in a line: Potentiating and synergistic effect, pulp disc inhibition zone on agar plate. Format: cell-based. As to the method: (§2) 10 ml of 2.5 folds diluted nutrient agar (pH 7.0) containing 50 μg/ml of penicillin G or cephaloridine was seeded with the β-lactamase producing and β-lactam-resistant microorganisms and poured in a 9 cm Petri dish to provide the bio-assay agar plate. […] A control assay plate was similarly prepared without penicillin G or cephaloridine. As reference antibiotics, 10,000 μg/ml of penicillin G or 20 μl of cephaloridine were disc-assayed under the same conditions.
(§3) Cepholoridine was added to a 2.5-times diluted nutrient agar, pH 7.0 and the medium was inoculated with a β-lactam-producing strain that produceds β-lactamase. Ten ml of the medium was spread and solidified in a petri dish of 9 cm in diameter to prepare an assay plate. […] Each 20 μl of the solution and its 2- and 4-times diluted solutions was soaked in a pulp disc of 8 mm in diameter. To the surface of the above nutrient agar was placed the pulp disc and the size of the growth inhibitory zone around the disc was examined after incubation at 35° C. for 18 hours. […] In addition, for the comparison, a similar experiment was also performed with a pulp disk soaked with 20 μl of 10,000 μg/ml Penicillin G or Cepholoridine solution in place of the antibiotic PS-7.

Series [14] deals with Citrobacter freundii E-9. Described as above. Format: cell-based. How it is done: (§4) 10 ml of 2.5 folds diluted nutrient agar (pH 7.0) containing 50 μg/ml of penicillin G or cephaloridine was seeded with the β-lactamase producing and β-lactam-resistant microorganisms and poured in a 9 cm Petri dish to provide the bio-assay agar plate. On this assay plate, 8 mm of pulp discs each containing 20 μl of antibiotic PS-6 solution at the concentration of 240 μg/ml were placed and incubated at 35° C. for 18 hours before reading the inhibition zones. A control assay plate was similarly prepared without penicillin G or cephaloridine. As reference antibiotics, 10,000 μg/ml of penicillin G or 20 μl of cephaloridine were disc-assayed under the same conditions.

The next series relates to Serratia marcescens S-18. The series is described as above. Format: cell-based. How it is done:
as §4

The subject of series [15] is β-lactamase-producing, β-lactam-resistant bacteria. Kind of series: Increase of the antibiotic activity of other antibiotics (summary in words). Format: cell-based. The conditions noted are these: β-lactamase-producing bacteria such as Proteus vulgaris, Serratia marcescens. How it is done:
as §2, §3

Where [16] appears, read: Table 6, agar containing 50 μg/ml of cephaloridine, disc 20 μl, PS-6 240 μg/ml, reference antibiotics 10,000 μg/ml.
Setting [17] is: Table 6, agar containing 50 μg/ml of penicillin G, disc 20 μl, PS-6 240 μg/ml, reference antibiotics 10,000 μg/ml.

With `CC(=O)NCCSC1=C(C(=O)OC(c2ccccc2)(c2ccccc2)c2ccccc2)N2C(=O)C(C(C)C)C2C1` (stereo not drawn) [Antibiotic PS-6 trityl ester], the MIC in [1] (Table 9) amounted to 1.34 µg/mL (≈ 2.42 µM); in the series with Citrobacter freundii E-9 [2] (Table 9), 12.5 µg/mL (≈ 22.5 µM); in series [3] (Table 9), 0.33 µg/mL (≈ 0.595 µM); in series [4] (Table 9, ester dissolved in methanol), 0.33 µg/mL (≈ 0.595 µM); in [5] (Table 9), 25 µg/mL (≈ 45.1 µM); in series [10], 0.33 µg/mL (≈ 0.595 µM). Besides, the MIC was 20 µg/mL (≈ 36.1 µM) in series [11] and 25 µg/mL (≈ 45.1 µM) in the series on Proteus vulgaris P-5 [12]. Moreover, the ED50 in series [6] came to 5.5 mg/kg. Also, in [6], the “Therapeutic effect in infected mice” value is “marked therapeutic effect”. Further, the Acute toxicity entry in [7] was “no acute toxicity”. In addition, the Solubility in water result in “Solubility” was “Substantially insoluble”. The “Solubility in organic solvents” value in the series “Solubility” is “Substantially insoluble in water and n-hexane; also recorded: Highly soluble in benzene, ethyl acetate, chloroform, methanol, ethanol, acetone, dimethylformamide (DMF) and dimethylsulfoxide (DMSO)”. In addition, the Stability result in series [8] is “more stable than antibiotic PS-6 or PS-7”. For the same compound, in series [9], the “Antibiotic activity against Gram-negative bacteria of the genera Klebsiella, Proteus” value is “good activity”. For the same compound, the “Antibiotic activity against Gram-negative bacteria of the genus Alcaligenes (Comamonas)” value in [9] is given as “very strong activity”. The “Antibiotic activity against Gram-negative bacteria resistant to β-lactam antibiotics” value in series [9] is reported as “strong activity”; in series [9] (listed as trityl ester of antibiotic PS-6) it was “strong antibiotic activity”. Moreover, in series [9], the “Antibiotic activity against Gram-positive bacteria” value is recorded as “very strong activity”.

Take `CCC1C(=O)N2C(C(=O)OC(c3ccccc3)(c3ccccc3)c3ccccc3)=C(SC=CNC(C)=O)CC12` (stereo not drawn) [Antibiotic PS-7 trityl ester]: the MIC came out at 1.34 µg/mL (≈ 2.49 µM) in [1] (Table 10); 6.25 µg/mL (≈ 11.6 µM) in the series on Citrobacter freundii E-9 [2] (Table 10); 0.16 µg/mL (≈ 0.297 µM) in series [3] (Table 10); 0.16 µg/mL (≈ 0.297 µM) in series [4] (Table 10, ester dissolved in methanol); 25 µg/mL (≈ 46.4 µM) in series [5] (Table 10); 0.16 µg/mL (≈ 0.297 µM) in [10]. For the same compound, the results for the MIC (in series [11]; in the series with Proteus vulgaris P-5 [12]) were 10 µg/mL (≈ 18.6 µM) and 25 µg/mL (≈ 46.4 µM), respectively. Also, in series [6], the ED50 was found to be 4.5 mg/kg. Further, the “Therapeutic effect in infected mice” value in series [6] was “marked therapeutic effect”. In addition, the Acute toxicity result in [7] is given as “no acute toxicity”. In addition, the Solubility in water result in the series “Solubility” is recorded as “Substantially insoluble”. For the same compound, the “Solubility in organic solvents” value in “Solubility” was “Highly soluble in benzene ethyl acetate, chloroform, methanol, ethanol, acetone, dimethylformamide (DMF) and dimethylsulfoxide (DMSO); also recorded: Substantially insoluble in water and n-hexane”. Besides, in series [8], the Stability entry is “more stable than antibiotic PS-6 or PS-7”. The “Antibiotic activity against Gram-negative bacteria of the genera Klebsiella, Proteus” value in [9] is “good activity”. Moreover, in series [9], the “Antibiotic activity against Gram-negative bacteria of the genus Alcaligenes (Comamonas)” value is “very strong activity”. In addition, the “Antibiotic activity against Gram-negative bacteria resistant to β-lactam antibiotics” value is given as “strong activity” in series [9] and “strong antibiotic activity” in series [9] (listed as trityl ester of antibiotic PS-7). The “Antibiotic activity against Gram-positive bacteria” value in series [9] is listed as “very strong activity”.

Consider `CC1(C)S[C@@H]2[C@H](NC(=O)Cc3ccccc3)C(=O)N2[C@H]1C(=O)O` [penicillin G], for which the zone of inhibition at 10000 µg/mL in the series on Proteus vulgaris P-5 [13] (Proteus vulgaris, P5, 18 h, read-out: Diameter of inhibitory zone, No addition) stood at 15 mm. Also, the zone of inhibition at 240 µg/mL is 15 mm in the series on Proteus vulgaris P-5 [13] (Proteus vulgaris, P5, 18 h, read-out: Inhibition zone, Control); 0 mm in the series with Citrobacter freundii E-9 [14] (Citrobacter freundii, E9, 18 h, read-out: Inhibition zone, Control); 0 mm in the series on Serratia marcescens S-18 (Serratia marcescens, S18, 18 h, read-out: Inhibition zone, Control). For the same compound, the entries for the “Inhibition zone, with cephaloridine” value with Proteus vulgaris P-5 [13] (setting [16]), in the series with Citrobacter freundii E-9 [14] (setting [16]) and in the series on Serratia marcescens S-18 (setting [16]) were 15.0 mm, 0.0 mm and 0.0 mm, respectively. The “Inhibition zone, with penicillin G” value in the series with Proteus vulgaris P-5 [13] (setting [17]) was found to be 15.0 mm; with Citrobacter freundii E-9 [14] (setting [17]) it was 0.0 mm; in the series on Serratia marcescens S-18 (setting [17]), 0.0 mm. Besides, in the series with Proteus vulgaris P-5 [13] (Table 8, comparison disc 20 μl of 10,000 μg/ml, cephaloridine in the agar), the “Diameter of inhibitory zone, Cephaloridine-added” value was 15.0 mm. In addition, the figures for the “Synergistic enhancement of the activity of penicillin G or cephaloridine (β-lactam antibiotics)” value in series [15] and in series [15] (listed as Penicillin G) were “no synergistic effect” and “No enhancement of antimicrobial activity”, respectively.
